Drawing on ChEMBL document CHEMBL5465560, “Selectivity Literature for EUbOPEN Chemogenomic Library” (2024), this text covers % of control and % activity for six compounds.

The target in assay [1] is Tyrosine-protein kinase BTK (Homo sapiens, UniProt Q06187). Put plainly: Selectivity interaction (Ambit KINOMEscan and KiNATiv profiling in Jurkat cells) EUB0000090b BTK. The assay is classed as cell-based. The settings on record: at 1 µM.
Assay [2] concerns the target Cyclin-dependent kinase 17 (Homo sapiens) (UniProt Q00537). Put plainly: Selectivity interaction (Ambit KINOMEscan and KiNATiv profiling in Jurkat cells) EUB0000090b CDK17. It is filed as cell-based. The settings on record: at 1 µM.
Assay [3] has as its target Phosphatidylinositol 4,5-bisphosphate 3-kinase catalytic subunit beta isoform (Homo sapiens) (UniProt P42338). Put plainly: Selectivity interaction (Ambit KINOMEscan and KiNATiv profiling in Jurkat cells) EUB0000090b PIK3CB. It is filed as cell-based. The following applies: at 1 µM.
In a further assay the target is Insulin receptor (Homo sapiens, UniProt P06213). The experiment in a line: Selectivity interaction (KinomeScan (DiscoverX)) EUB0000607a INSR. The following applies: at 10 µM.
In assay [4] the target is T1, Histone-arginine methyltransferase CARM1 (Homo sapiens) (UniProt Q86X55).
T1 sequence (whole entry): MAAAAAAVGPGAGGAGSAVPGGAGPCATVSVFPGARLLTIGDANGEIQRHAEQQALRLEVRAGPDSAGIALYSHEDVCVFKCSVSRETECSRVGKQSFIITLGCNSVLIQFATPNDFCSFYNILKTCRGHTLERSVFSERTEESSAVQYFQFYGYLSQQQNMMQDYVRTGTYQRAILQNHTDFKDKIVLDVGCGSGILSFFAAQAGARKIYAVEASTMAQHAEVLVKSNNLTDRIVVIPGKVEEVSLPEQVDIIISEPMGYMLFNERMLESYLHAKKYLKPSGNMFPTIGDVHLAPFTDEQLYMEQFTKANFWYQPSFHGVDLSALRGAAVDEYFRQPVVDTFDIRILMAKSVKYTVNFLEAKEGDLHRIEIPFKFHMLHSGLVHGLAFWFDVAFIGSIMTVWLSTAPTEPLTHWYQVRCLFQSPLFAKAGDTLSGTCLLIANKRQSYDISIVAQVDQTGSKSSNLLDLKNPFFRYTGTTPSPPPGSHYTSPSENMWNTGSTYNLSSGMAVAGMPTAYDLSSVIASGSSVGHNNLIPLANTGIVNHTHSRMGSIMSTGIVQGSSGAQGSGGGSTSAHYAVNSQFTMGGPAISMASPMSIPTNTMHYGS
Put plainly: Selectivity interaction (Methyltransferase screen (Scintillation proximity assays)) EUB0000255b CARM1. On the technique in general: SPA uses beads or plates that emit light when radiolabelled molecules are held near them.

The target in assay [5] is Ribosomal protein S6 kinase alpha-3 (Homo sapiens, UniProt P51812). The experiment in a line: Selectivity interaction (KinomeScan (DiscoverX)) EUB0001079a RPS6KA3. The settings on record: at 1 µM.
Assay [6] addresses T2, Serine/threonine-protein kinase TNNI3K (Homo sapiens) (UniProt Q59H18).
T2 sequence (whole entry): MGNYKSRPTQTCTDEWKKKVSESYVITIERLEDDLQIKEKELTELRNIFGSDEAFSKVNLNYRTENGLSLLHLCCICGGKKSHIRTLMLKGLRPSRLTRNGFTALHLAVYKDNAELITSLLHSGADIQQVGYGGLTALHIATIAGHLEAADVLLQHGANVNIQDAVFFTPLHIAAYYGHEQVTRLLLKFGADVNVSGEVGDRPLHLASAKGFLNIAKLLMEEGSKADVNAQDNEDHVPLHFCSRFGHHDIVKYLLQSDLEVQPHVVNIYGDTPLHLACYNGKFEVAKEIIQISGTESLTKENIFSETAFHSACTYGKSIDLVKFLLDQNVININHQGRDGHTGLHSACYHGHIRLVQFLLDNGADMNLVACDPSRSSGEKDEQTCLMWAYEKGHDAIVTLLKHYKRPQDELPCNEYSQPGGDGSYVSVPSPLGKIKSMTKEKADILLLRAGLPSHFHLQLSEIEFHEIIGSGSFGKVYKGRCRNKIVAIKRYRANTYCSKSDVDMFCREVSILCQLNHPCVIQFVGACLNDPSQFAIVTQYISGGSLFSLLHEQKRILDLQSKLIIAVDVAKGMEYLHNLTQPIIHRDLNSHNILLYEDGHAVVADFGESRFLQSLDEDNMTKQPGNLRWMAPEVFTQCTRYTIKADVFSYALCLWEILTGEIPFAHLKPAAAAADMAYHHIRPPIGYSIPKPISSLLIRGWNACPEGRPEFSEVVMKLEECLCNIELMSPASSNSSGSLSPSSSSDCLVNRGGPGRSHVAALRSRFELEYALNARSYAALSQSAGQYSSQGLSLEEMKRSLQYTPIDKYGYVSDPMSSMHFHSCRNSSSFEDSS
The experiment in a line: Selectivity interaction (KinomeScan (DiscoverX)) EUB0000695a TNNI3K. The settings on record: at 100 nM.

Assay [7] deals with T3, Cyclin-dependent kinase-like 2 (Homo sapiens) (UniProt Q92772).
T3 sequence (whole entry): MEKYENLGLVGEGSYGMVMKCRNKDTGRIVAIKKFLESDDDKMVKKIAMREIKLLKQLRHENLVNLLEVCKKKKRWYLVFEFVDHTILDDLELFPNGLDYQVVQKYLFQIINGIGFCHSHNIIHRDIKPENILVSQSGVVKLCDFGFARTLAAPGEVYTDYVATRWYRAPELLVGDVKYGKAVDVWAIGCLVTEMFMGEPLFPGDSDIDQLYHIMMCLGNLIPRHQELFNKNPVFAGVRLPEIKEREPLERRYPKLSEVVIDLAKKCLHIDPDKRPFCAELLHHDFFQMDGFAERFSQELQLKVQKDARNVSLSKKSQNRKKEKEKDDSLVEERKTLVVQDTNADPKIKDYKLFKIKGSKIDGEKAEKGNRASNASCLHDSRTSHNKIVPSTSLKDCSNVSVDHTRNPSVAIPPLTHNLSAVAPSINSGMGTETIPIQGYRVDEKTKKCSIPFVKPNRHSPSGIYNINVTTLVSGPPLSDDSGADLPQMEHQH
The experiment in a line: Selectivity interaction (KinomeScan (DiscoverX)) EUB0000092b CDKL2. The following applies: at 10 µM.

Sequence of Insulin receptor (P06213 28-758 limits assumed): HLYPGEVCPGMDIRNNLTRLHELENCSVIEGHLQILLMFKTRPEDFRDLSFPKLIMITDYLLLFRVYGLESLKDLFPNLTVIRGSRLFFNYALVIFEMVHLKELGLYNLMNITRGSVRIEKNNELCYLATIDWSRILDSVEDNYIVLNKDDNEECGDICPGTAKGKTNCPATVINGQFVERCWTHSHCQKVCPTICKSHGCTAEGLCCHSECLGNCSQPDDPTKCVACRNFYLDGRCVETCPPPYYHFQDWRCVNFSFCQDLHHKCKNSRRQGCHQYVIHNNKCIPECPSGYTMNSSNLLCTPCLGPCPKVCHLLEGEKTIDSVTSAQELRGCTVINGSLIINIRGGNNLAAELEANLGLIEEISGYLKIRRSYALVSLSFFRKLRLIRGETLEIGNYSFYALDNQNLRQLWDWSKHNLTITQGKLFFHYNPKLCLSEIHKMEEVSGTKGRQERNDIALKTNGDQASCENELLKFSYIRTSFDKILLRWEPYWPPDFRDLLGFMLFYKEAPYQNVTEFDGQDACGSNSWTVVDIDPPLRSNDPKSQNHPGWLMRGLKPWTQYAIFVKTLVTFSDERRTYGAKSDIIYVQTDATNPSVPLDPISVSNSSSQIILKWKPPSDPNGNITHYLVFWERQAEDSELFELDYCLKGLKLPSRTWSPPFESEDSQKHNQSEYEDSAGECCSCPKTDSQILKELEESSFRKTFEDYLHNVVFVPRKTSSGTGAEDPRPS
Sequence of Insulin receptor (P06213 763-1382 limits assumed): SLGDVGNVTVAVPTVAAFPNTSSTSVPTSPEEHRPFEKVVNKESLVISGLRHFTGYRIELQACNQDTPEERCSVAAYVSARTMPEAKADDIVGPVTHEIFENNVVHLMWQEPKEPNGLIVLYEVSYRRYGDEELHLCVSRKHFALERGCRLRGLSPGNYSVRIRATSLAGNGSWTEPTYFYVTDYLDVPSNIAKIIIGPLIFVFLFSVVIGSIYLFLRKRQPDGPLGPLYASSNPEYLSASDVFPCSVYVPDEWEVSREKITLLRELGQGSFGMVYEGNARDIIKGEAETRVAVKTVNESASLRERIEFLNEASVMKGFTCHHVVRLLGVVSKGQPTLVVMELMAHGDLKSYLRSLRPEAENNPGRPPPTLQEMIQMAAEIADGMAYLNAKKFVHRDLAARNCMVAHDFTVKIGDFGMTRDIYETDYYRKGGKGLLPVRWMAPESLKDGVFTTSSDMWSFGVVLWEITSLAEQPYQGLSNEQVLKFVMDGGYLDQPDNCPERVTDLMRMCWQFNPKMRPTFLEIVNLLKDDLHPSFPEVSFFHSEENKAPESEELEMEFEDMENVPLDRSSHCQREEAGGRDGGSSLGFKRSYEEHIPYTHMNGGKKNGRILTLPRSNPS
Sequence of Cyclin-dependent kinase 17 (Homo sapiens) (Q00537 whole entry, looked up, canonical isoform): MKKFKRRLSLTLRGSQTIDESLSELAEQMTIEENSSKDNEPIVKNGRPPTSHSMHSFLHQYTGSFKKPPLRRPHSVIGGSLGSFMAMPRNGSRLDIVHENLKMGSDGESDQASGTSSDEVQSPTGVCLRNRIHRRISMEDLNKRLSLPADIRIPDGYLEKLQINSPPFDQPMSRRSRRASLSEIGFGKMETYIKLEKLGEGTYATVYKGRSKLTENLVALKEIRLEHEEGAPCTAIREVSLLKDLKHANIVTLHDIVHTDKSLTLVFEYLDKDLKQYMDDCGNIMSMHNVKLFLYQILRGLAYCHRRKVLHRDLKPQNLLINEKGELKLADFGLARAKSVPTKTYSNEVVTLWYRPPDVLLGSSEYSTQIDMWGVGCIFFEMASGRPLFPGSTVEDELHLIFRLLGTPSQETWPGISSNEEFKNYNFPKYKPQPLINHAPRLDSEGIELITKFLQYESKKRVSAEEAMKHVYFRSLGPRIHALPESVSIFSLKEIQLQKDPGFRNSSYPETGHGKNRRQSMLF
Sequence of Ribosomal protein S6 kinase alpha-3 (P51812 whole entry): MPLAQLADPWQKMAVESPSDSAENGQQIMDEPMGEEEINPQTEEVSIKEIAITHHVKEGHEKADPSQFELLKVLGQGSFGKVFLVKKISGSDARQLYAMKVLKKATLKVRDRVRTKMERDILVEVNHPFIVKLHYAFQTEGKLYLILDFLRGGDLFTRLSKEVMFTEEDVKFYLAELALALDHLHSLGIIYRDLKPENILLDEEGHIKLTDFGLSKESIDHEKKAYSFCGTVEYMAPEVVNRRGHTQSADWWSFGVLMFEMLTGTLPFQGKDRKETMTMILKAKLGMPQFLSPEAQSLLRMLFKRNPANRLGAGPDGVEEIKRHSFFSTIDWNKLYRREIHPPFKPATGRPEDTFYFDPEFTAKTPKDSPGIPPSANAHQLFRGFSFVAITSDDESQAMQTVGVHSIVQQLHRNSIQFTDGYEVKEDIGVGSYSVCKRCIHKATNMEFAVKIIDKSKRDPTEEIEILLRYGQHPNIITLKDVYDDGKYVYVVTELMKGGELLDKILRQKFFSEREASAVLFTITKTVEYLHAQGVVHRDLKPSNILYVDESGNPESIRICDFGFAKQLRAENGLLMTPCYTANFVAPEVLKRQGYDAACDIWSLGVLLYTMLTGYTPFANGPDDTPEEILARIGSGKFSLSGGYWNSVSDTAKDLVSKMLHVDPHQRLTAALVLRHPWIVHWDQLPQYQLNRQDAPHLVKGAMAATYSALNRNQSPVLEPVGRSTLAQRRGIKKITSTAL
Sequence of Phosphatidylinositol 4,5-bisphosphate 3-kinase catalytic subunit beta isoform (Homo sapiens) (P42338 whole entry, looked up, canonical isoform): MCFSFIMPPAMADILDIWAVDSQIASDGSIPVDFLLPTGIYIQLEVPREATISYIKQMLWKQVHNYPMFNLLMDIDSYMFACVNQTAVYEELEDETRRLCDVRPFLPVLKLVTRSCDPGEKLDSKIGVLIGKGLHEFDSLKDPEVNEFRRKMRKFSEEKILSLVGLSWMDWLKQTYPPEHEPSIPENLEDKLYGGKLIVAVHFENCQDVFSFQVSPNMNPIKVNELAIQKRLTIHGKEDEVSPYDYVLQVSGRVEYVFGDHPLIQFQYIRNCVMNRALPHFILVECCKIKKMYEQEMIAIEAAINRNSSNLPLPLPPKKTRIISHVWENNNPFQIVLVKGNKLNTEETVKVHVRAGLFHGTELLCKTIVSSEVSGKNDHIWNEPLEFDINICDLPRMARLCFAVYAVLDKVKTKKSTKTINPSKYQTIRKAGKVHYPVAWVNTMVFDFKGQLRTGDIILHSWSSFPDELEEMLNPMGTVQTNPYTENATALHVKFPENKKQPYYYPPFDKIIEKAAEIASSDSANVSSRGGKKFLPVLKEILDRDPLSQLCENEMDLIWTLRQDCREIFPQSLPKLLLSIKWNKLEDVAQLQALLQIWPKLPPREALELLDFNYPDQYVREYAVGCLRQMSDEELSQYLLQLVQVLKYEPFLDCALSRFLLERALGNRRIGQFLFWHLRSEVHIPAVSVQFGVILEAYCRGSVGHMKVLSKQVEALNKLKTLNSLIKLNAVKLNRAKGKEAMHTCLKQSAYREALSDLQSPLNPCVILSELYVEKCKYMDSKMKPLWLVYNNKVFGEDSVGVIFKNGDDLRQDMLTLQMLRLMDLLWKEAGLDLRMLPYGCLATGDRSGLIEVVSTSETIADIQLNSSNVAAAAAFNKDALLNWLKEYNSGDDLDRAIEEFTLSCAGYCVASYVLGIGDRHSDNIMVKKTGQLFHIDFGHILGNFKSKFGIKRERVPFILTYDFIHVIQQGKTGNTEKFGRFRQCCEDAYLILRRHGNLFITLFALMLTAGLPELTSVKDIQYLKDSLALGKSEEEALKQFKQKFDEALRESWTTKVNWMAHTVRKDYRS
Sequence of Tyrosine-protein kinase BTK (Q06187 whole entry): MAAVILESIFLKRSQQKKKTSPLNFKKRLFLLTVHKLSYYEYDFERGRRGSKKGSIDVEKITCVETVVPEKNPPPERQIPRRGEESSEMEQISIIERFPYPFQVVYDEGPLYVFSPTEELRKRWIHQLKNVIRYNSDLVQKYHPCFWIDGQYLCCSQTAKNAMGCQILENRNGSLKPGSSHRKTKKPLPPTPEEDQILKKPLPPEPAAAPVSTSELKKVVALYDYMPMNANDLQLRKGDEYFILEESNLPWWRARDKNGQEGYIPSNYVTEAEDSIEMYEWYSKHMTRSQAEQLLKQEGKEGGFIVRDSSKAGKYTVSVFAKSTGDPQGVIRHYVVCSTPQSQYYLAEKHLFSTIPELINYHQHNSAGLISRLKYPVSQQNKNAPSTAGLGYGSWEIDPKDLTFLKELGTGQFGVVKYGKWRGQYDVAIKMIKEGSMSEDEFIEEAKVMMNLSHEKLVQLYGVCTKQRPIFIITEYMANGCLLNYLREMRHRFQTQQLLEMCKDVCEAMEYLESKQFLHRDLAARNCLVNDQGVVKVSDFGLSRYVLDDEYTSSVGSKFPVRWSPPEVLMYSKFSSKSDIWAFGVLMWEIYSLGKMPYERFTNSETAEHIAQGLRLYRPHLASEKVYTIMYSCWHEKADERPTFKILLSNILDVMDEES

`CN(C)C/C=C/C(=O)Nc1ccc(C(=O)N2CCCC(Nc3ncc(Cl)c(-c4c[nH]c5ccccc45)n3)C2)cc1` (centres undefined): the % of control in assay [1] turned out to be 90%; in assay [2], 83%; in assay [3], 100%. At Insulin receptor, `CNC(=O)Nc1ccc(-c2nc(N3CC4CCC(C3)O4)c3cnn(C4CCC5(CC4)OCCO5)c3n2)cc1` showed a % of control of 84%. As to `COCCN1CCC(c2cc(CN(C)C(=O)c3cccc(Oc4ccccc4)c3)ccn2)CC1`, the % activity in assay [4] (at 1 µM) was below 1%; in assay [4] (at 10 µM) it was 23%. The compound `Nc1cnc(N2CCc3cc(S(=O)(=O)Nc4c(F)cc(Cl)cc4F)cc(N4CCCC4=O)c32)nc1` [TP-020n] registered a % of control in assay [5] of 100%. `Cc1cc(F)c(C(=O)Nc2cccc(-c3nncn3C(C)C)n2)cc1-n1cnc(C2CC2)c1` had a % of control in assay [6] of 100%. Regarding `CCC(=O)N1CCN(c2ccc(-n3c(=O)ccc4cnc5ccc(-c6cnc7ccccc7c6)cc5c43)cc2C(F)(F)F)CC1`, the % of control in assay [7] was found to be 58%.
